Values joined by “and” are separate entries in the source; they are usually repeats but may differ in a detail not shown here. Equal values may be shown once.
What was measured:
[1] = Solubility of the quinolone, Forms I and III, in ethyl acetate; type: physicochemical; settings: 20° C, two values given
Protocol: Bulk drug samples are prepared by dissolving the material in mobile phase at a final concentration of approximately 0.25 to 0.5 mg/ml. For solubility experiments, 100 mcl aliquots of ethyl acetate solutions are withdrawn and placed directly into HPLC autosampler vials. A gentle stream of nitrogen gas is used to evaporate the solvent in the sample vials. The solids are reconstituted with 0.5 ml of HPLC mobile phase prior to analysis.
Solubilities are measured in ethyl acetate. Five to ten milligrams of bulk drug are placed into an amber autoinjector vial, and 3.0 ml of ethyl acetate are added. The vials are capped and shaken for intervals up to 24 hours at room temperature using a Burrell model BB wrist-action shaker. Aliquots are withdrawn from the supernate after centrifugation. The final sample is taken from a quiescent solution which had not been shaken since the 24 hour timepoint.
The solubilities of Forms I and III were determined in ethyl acetate at room temperature; the solubility data for each form was gathered simultaneously, to assure that each form's solubility was measured under identical conditions. Ethyl acetate was employed as an aprotic solvent yielding fairly low equilibrium solubilities of the quinolone; ethyl acetate has been used to evaluate the difference in free energy of polymorphic forms of an antinociceptive drug, as described by K. Raghavan et al., J. Pharm. Biomed. Anal. Vol.12 (6), pp. 777-785 (1994). Under the assumption that the solubilities in TABLE S are consistent with the dilute solution limit, we can use the following expression to calculate the difference in Gibbs free energy between Form I and Form III: [formula] where "sx " is the solubility of Form x in a sufficiently dilute solution, R is the gas constant, and T is the absolute temperature. Using the data in Table 1, we find that the Gibbs free energy of Form III is lower than that of Form I by 7.7±0.2 kJ/mole.

[2] = Dynamic moisture sorption gravimetry (controlled atmosphere microbalance, 25° C); type: physicochemical
Protocol: Dynamic Moisture Sorption Gravimetry
Dynamic moisture uptake is studied on the controlled atmosphere microbalance system at 25° C. About ten mg of sample are equilibrated on the balance for about 2 hours at 2.5% RH. The relative humidity surrounding the sample is increased in increments of 3% RH up to about 92% RH, at which point the RH is decremented in 3% steps to a final RH of about 2.5%. At each relative humidity, the sample is allowed to equilibrate until the mass is stable within 0.0005 mg over a ten minute period. The dry mass is assumed to correspond to the mass of the sample after the initial equilibration period. A controlled atmosphere microbalance is a balance system described by Bergren, M.S. Int. J. Pharm. (1994) Vol. 103, pp. 103-114.
Detailed description of FIG. 2. […] The ordinate represents the mass change relative to the lowest mass measurement. The abscissa is relative humidity. The circles represent points recorded after sequential increases in the relative humidity and the squares were recorded after decreases in the relative humidity. The horizontal line in the middle of the plot corresponds to the water content of the hypothetical monohydrate of the quinolone.
Detailed description of FIG. 6. […] The ordinate represents the mass change relative to the lowest mass measurement. The abscissa is relative humidity. The circles represent points recorded after sequential increases in the relative humidity and the squares were recorded after decreases in the relative humidity. The horizontal line in the middle of the plot corresponds to the water content of the hypothetical monohydrate of the quinolone.

## CN[C@@H](C)[C@@H]1CCN(c2c(F)cc3c(=O)c(C(=O)O)cn(C4CC4)c3c2OC)C1 [Form I, [S-(R*,S*)]-1-cyclopropyl-6-fluoro-1,4-dihydro-8-methoxy-7-[3-[1-(methylamino)ethyl]-1-pyrrolidinyl]-4-oxo-3-quinolinecarboxylic acid]
[1]; 1 hour, 60 min
  Solubility, concentration: 2.89 mg/mL and 2.78 mg/mL
[1]; 2 hours, 120 min
  Solubility, concentration: 2.18 mg/mL and 2.99 mg/mL
[1]; 4.5 hours, 270 min
  Solubility, concentration: 3.01 mg/mL and 3.11 mg/mL
[1]; 18 hours, 1080 min
  Solubility, concentration: 3.02 mg/mL and 3.08 mg/mL
[1]; 24 hours, 1440 min
  Solubility, concentration: 3.24 mg/mL and 3.32 mg/mL
[1]; 67.5 hours (not shaken after 24 hours), 4050 min
  Solubility, concentration: 3.22 mg/mL and 3.24 mg/mL
[2]; RH decreased to 10%
  Moisture content on desorption: about 4.3%
[2]; RH decreased to 80%
  Moisture content on desorption: about 4.9%
[2]; sorption, 90-92% RH
  Moisture plateau: 7.5-7.7 % w/w
[2]; sorption, up to 70% RH
  Moisture pickup: 1%

— patent US5985893A, “Physically stable solid form of a fluoroquinolone” (Pharmacia & Upjohn Company, priority 1996, dated 1999)
